Laboratory results taken from patent US20230407243A1, “GENETIC PLATFORM TO INVESTIGATE THE FUNCTIONS OF BACTERIAL DRUG EFFLUX PUMPS” (priority 2022, published 2023).

Experiments:
Assay type in all cases: cell-based, Escherichia coli
EKO-35 araC::acrBD408A = assay: MIC susceptibility profiling, efflux platform; details: for Fold change of MICs: EKO-35 araC::acrBD408A compared to EKO-35; for Minimum Inhibitory Concentration, EKO-35 araC::acrBD408A: Table 13B, non-porinated, technical duplicate
Outline: (§1)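 Each compound was serially diluted twofold, in duplicate, and challenged with a 1/2000 dilution of PBS-washed cells (OD600 ~1.0) in MHB II. Plates were shaken at 37 °C for 18 h and OD600 was read at room temperature, with the baseline subtracted.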

EKO-35 araC::mdtBC = assay: MIC susceptibility profiling, efflux platform; details: for Fold change of MICs: EKO-35 araC::mdtBC compared to EKO-35; for Minimum Inhibitory Concentration, EKO-35 araC::mdtBC: Table 13B, non-porinated, technical duplicate
Outline: as §1

EKO-35 araC::macAB = assay: MIC susceptibility profiling, efflux platform; details: for Fold change of MICs: EKO-35 araC::macAB compared to EKO-35; for Minimum Inhibitory Concentration, EKO-35 araC::macAB: Table 13B, non-porinated, technical duplicate
Outline: as §1

EKO-35 araC::acrD = assay: MIC susceptibility profiling, efflux platform; details: for Fold change of MICs: EKO-35 araC::acrD compared to EKO-35; for Minimum Inhibitory Concentration, EKO-35 araC::acrD: Table 13A, non-porinated, technical duplicate
Outline: as §1

EKO-35 araC::mdtEF = assay: MIC susceptibility profiling, efflux platform; details: for Fold change of MICs: EKO-35 araC::mdtEF compared to EKO-35; for Minimum Inhibitory Concentration, EKO-35 araC::mdtEF: Table 13A, non-porinated, technical duplicate
Outline: as §1

EKO-35 araC::acrEF = assay: MIC susceptibility profiling, efflux platform; details: for Fold change of MICs: EKO-35 araC::acrEF compared to EKO-35; for Minimum Inhibitory Concentration, EKO-35 araC::acrEF: Table 13A, non-porinated, technical duplicate
Outline: as §1

[1] = tested on: EKO-35 araC::mexCD (MexCD from P. aeruginosa); assay: MIC susceptibility profiling, efflux platform; details: for Fold change of MICs: EKO-35 araC::mexCD compared to EKO-35; for Minimum Inhibitory Concentration, EKO-35 araC::mexCD: Table 13B, non-porinated, technical duplicate
Outline: as §1

EKO-35 araC::emrAB = assay: MIC susceptibility profiling, efflux platform; details: for Fold change of MICs: EKO-35 araC::emrAB compared to EKO-35; for Minimum Inhibitory Concentration, EKO-35 araC::emrAB: Table 13B, non-porinated, technical duplicate
Outline: as §1

EKO-35 araC::emrKY = assay: MIC susceptibility profiling, efflux platform; details: for Fold change of MICs: EKO-35 araC::emrKY compared to EKO-35; for Minimum Inhibitory Concentration, EKO-35 araC::emrKY: Table 13B, non-porinated, technical duplicate
Outline: as §1

EKO-35 araC::acrB = assay: MIC susceptibility profiling, efflux platform; details: for Minimum Inhibitory Concentration, EKO-35 araC::acrB: Table 13A, non-porinated, technical duplicate
Outline: as §1

[2] = tested on: EKO-35 araC::acrBD408A Pore; assay: MIC susceptibility profiling, porinated efflux platform; details: for Fold changes of MICs: EKO-35 araC::acrBD408A Pore compared to EKO-35-Pore; for Minimum inhibitory concentration: EKO-35 araC::acrBD408A Pore, technical duplicate
Outline: (§2)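 E. coli strains carrying a genomically integrated constitutive fhuA ΔC/Δ4L pore were grown 18 h in LB at 37 °C, then diluted 1/2000 in MHB II from OD600 ~1.0. Compounds were tested in duplicate, 2-fold serial titration, for 18 h at 37 °C with shaking. MIC came from OD600 with the pre-incubation background subtracted.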

EKO-35 araC::acrD Pore = assay: as above; details: for Fold changes of MICs: EKO-35 araC::acrD Pore compared to EKO-35-Pore; for Minimum inhibitory concentration, EKO-35 araC::acrD Pore: Table 14A, porinated, technical duplicate
Outline: as §2

EKO-35 araC::emrKY Pore = assay: as above; details: for Fold changes of MICs: EKO-35 araC::emrKY Pore compared to EKO-35-Pore; for Minimum inhibitory concentration: EKO-35 araC::emrKY Pore, technical duplicate
Outline: as §2

ΔtolC-Pore = assay: microbe, parasite or virus in culture; details: technical duplicate; for Minimum inhibitory concentration (MIC), Pore ΔtolC: Table 10, with pore; for Minimum inhibitory concentration, ΔtolC-Pore: Table 14A, porinated
Outline: as §2

wild-type (WT) K-12-Pore = assay: microbe, parasite or virus in culture; details: technical duplicate; for Minimum inhibitory concentration (MIC), Pore K-12: Table 10, with pore; for Minimum inhibitory concentration, K-12 (WT)-Pore: Table 14A, porinated
Outline: as §2

[3] = tested on: wild-type E. coli K-12 str. BW25113; assay: microbe, parasite or virus in culture; details: technical duplicate; for Minimum inhibitory concentration (MIC), K-12: Table 10, without pore; for Minimum Inhibitory Concentration, K-12: Table 13A, non-porinated
Outline: as §1

E. coli ΔtolC = assay: microbe, parasite or virus in culture; details: technical duplicate; for Minimum inhibitory concentration (MIC), ΔtolC: Table 10, without pore; for Minimum Inhibitory Concentration, ΔtolC: Table 13A, non-porinated
Outline: as §1

E. coli EKO-35 = assay: microbe, parasite or virus in culture; details: for Fold change of MICs: EKO-35 compared to EKO-35 (reference); for Minimum inhibitory concentration (MIC), EKO-35: Table 10, without pore; for Minimum inhibitory concentration (MIC), EKO-35 / Minimum Inhibitory Concentration, EKO-35: technical duplicate; for Minimum Inhibitory Concentration, EKO-35: Table 13A, non-porinated
Outline: as §1

EKO-35-Pore = assay: MIC susceptibility profiling, porinated strain; details: for Fold changes of MICs: EKO-35-Pore compared to EKO-35-Pore (reference); for Minimum inhibitory concentration (MIC), Pore EKO-35: Table 10, with pore; for Minimum inhibitory concentration (MIC), Pore EKO-35 / Minimum inhibitory concentration, EKO-35-Pore: technical duplicate; for Minimum inhibitory concentration, EKO-35-Pore: Table 14A, porinated
Outline: as §2

SMILES | Fold change of MICs (EKO-35 araC::acrBD408A) [fold] | Minimum Inhibitory Concentration, EKO-35 araC::acrBD408A (EKO-35 araC::acrBD408A) [µg/mL] | Fold change of MICs (EKO-35 araC::mdtBC) [fold] | Minimum Inhibitory Concentration, EKO-35 araC::mdtBC (EKO-35 araC::mdtBC) [µg/mL] | Fold change of MICs (EKO-35 araC::macAB) [fold] | Minimum Inhibitory Concentration, EKO-35 araC::macAB (EKO-35 araC::macAB) [µg/mL] | Fold change of MICs (EKO-35 araC::acrD) [fold] | Minimum Inhibitory Concentration, EKO-35 araC::acrD (EKO-35 araC::acrD) [µg/mL] | Fold change of MICs (EKO-35 araC::mdtEF) [fold] | Minimum Inhibitory Concentration, EKO-35 araC::mdtEF (EKO-35 araC::mdtEF) [µg/mL] | Fold change of MICs (EKO-35 araC::acrEF) [fold] | Minimum Inhibitory Concentration, EKO-35 araC::acrEF (EKO-35 araC::acrEF) [µg/mL] | Fold change of MICs [1] [fold] | Minimum Inhibitory Concentration, EKO-35 araC::mexCD [1] [µg/mL] | Fold change of MICs (EKO-35 araC::emrAB) [fold] | Minimum Inhibitory Concentration, EKO-35 araC::emrAB (EKO-35 araC::emrAB) [µg/mL] | Fold change of MICs (EKO-35 araC::emrKY) [fold] | Minimum Inhibitory Concentration, EKO-35 araC::emrKY (EKO-35 araC::emrKY) [µg/mL] | Minimum Inhibitory Concentration, EKO-35 araC::acrB (EKO-35 araC::acrB) [µg/mL] | Fold changes of MICs [2] [fold] | further results
COC(=O)c1sc(N2CCCC2)c(C#N)c1-c1cccs1 [compound 10] | 1 | 160 | 1 | 160 | 1 | 160 | 1 | 160 | 1 | 160 | 1 | 160 | 1 | 160 | 1 | 160 | 1 | 160 | 160 | 1 | Fold change of MICs (EKO-35 araC::acrB; EKO-35 araC::acrB compared to EKO-35): 1 fold; Minimum inhibitory concentration [2]: 10 µg/mL; Fold changes of MICs (EKO-35 araC::acrD Pore): 16 fold; Minimum inhibitory concentration, EKO-35 araC::acrD Pore (EKO-35 araC::acrD Pore): 160 µg/mL; Fold changes of MICs (EKO-35 araC::emrKY Pore): 1 fold; Minimum inhibitory concentration (EKO-35 araC::emrKY Pore): 10 µg/mL; Minimum inhibitory concentration (MIC), Pore ΔtolC (ΔtolC-Pore): 5 µg/mL; Minimum inhibitory concentration, ΔtolC-Pore (ΔtolC-Pore): 5 µg/mL; Minimum inhibitory concentration (MIC), Pore K-12 (wild-type (WT) K-12-Pore): 160 µg/mL; Minimum inhibitory concentration, K-12 (WT)-Pore (wild-type (WT) K-12-Pore): 160 µg/mL; Minimum inhibitory concentration (MIC), K-12 [3]: 160 µg/mL; Minimum Inhibitory Concentration, K-12 [3]: 160 µg/mL; Minimum inhibitory concentration (MIC), ΔtolC (E. coli ΔtolC): 10 µg/mL; Minimum Inhibitory Concentration, ΔtolC (E. coli ΔtolC): 10 µg/mL; Fold change of MICs (E. coli EKO-35): 1 fold; Minimum inhibitory concentration (MIC), EKO-35 (E. coli EKO-35): 160 µg/mL; Minimum Inhibitory Concentration, EKO-35 (E. coli EKO-35): 160 µg/mL; Fold changes of MICs (EKO-35-Pore): 1 fold; Minimum inhibitory concentration (MIC), Pore EKO-35 (EKO-35-Pore): 10 µg/mL; Minimum inhibitory concentration, EKO-35-Pore (EKO-35-Pore): 10 µg/mL
O=[N+]([O-])c1ccc2c(c1)C(=NO)c1cc([N+](=O)[O-])ccc1-2 [compound 11] | 1 | 0.078 | 1 | 0.078 | 1 | 0.078 | 8 | 0.625 | 128 | 10 | 4096 | 320 | 16 | 1.25 | 512 | 40 | 1 | 0.078 | 320 | 1 | Minimum inhibitory concentration [2]: 0.078 µg/mL; Fold changes of MICs (EKO-35 araC::acrD Pore): 4 fold; Minimum inhibitory concentration, EKO-35 araC::acrD Pore (EKO-35 araC::acrD Pore): 0.313 µg/mL; Fold changes of MICs (EKO-35 araC::emrKY Pore): 1 fold; Minimum inhibitory concentration (EKO-35 araC::emrKY Pore): 0.078 µg/mL; Minimum inhibitory concentration (MIC), Pore ΔtolC (ΔtolC-Pore): 0.156 µg/mL; Minimum inhibitory concentration, ΔtolC-Pore (ΔtolC-Pore): 0.156 µg/mL; Minimum inhibitory concentration (MIC), Pore K-12 (wild-type (WT) K-12-Pore): 80 µg/mL; Minimum inhibitory concentration, K-12 (WT)-Pore (wild-type (WT) K-12-Pore): 80 µg/mL; Minimum inhibitory concentration (MIC), K-12 [3]: 320 µg/mL; Minimum Inhibitory Concentration, K-12 [3]: 320 µg/mL; Minimum inhibitory concentration (MIC), ΔtolC (E. coli ΔtolC): 0.156 µg/mL; Minimum Inhibitory Concentration, ΔtolC (E. coli ΔtolC): 0.156 µg/mL; Fold change of MICs (E. coli EKO-35): 1 fold; Minimum inhibitory concentration (MIC), EKO-35 (E. coli EKO-35): 0.078 µg/mL; Minimum Inhibitory Concentration, EKO-35 (E. coli EKO-35): 0.078 µg/mL; susceptibility of EKO-35 to the compound (E. coli EKO-35; synthetic efflux substrates of FIG. 12): susceptible; Fold changes of MICs (EKO-35-Pore): 1 fold; Minimum inhibitory concentration (MIC), Pore EKO-35 (EKO-35-Pore): 0.078 µg/mL; Minimum inhibitory concentration, EKO-35-Pore (EKO-35-Pore): 0.078 µg/mL
